# Laboratory results as given in PMC10582583, “The novel cyclophilin inhibitor C105SR reduces hepatic ischaemia–reperfusion injury via mitoprotection” (JHEP Reports, 2023).
# Assays:
# [1] = tested on: isolated mouse liver mitochondria; test: Calcium retention capacity (CRC) assay in isolated liver mitochondria; assay type: biochemical; settings: for mitochondrial CRC vs maximum effect of CsA: 5 μM concentration and above (Fig. 2E); for mitochondrial CRC vs CsA and ALV: 0.5 and 1 μM (Fig. 2E); for maximal mitochondrial CRC, diastereoisomer vs racemic mixture: Fig. 2E; for mitochondrial CRC vs control: diastereoisomers at 100 μM (Fig. 2C); for EC50: isolated mouse liver mitochondria
# [2] = tested on: isolated mouse liver mitochondria; test: Ca2+-induced mitochondrial swelling assay; assay type: biochemical; settings: energised isolated mouse liver mitochondria
# [3] = tested on: AML-12 cells; test: Propidium iodide staining, hypoxia/reoxygenation; assay type: cell-based, mouse; settings: 1 μM; 4 h hypoxia, 1 h reoxygenation
# Method: To assess whether the new SMCypIs reduced mPTP opening-induced cell death, propidium iodide fluorescence was measured in cells that had been co-loaded with calcein-AM. As expected, the loss of calcein fluorescence in cells subjected to hypoxia/reoxygenation was associated with enhanced propidium iodide fluorescence (Fig. 3A and 3C).
# Calcium retention capacity (CRC) assay. Isolated liver mitochondria (1 mg/mL) energized with 5 mM glutamate/malate were incubated in a buffer allowing respiration of mitochondria (100 mM KCl, 50 mM sucrose, 10 mM HEPES, 5 mM KH2PO4, pH 7.4 at 30°C) supplemented with 1 µM calcium green 5N fluorescent probe. Mitochondria were pulsed with sequential additions of CaCl2 (20 µM) until mPTP opening along with rapid calcium release happened. The calcium concentration in the extra-mitochondrial medium was monitored with a Jasco FP-6300 spectrofluorimeter (Jasco, Bouguenais, France) at 506 nm excitation and 532 nm emission wavelengths.
# Mitochondrial swelling assay. Mitochondrial swelling was assessed by measuring changes in absorbance at 540 nm using a Jasco V-530 spectrophotometer (Bouguenais, France) equipped with magnetic stirring and thermostatic control (30°C). […]
# Monitoring of mPTP opening. mPTP opening was monitored in AML-12 cells using the CoCl2-calcein AM fluorescence-quenching assay. […] Calcein fluorescence was measured using a spectrofluorimeter at excitation and emission wavelengths of 485 nm and 535 nm, respectively. Images were acquired using a standard inverted fluorescence microscope (Zeiss Axio, […]
# Propidium iodide staining. […] Fluorescence was measured using an Infinite 200 Pro fluorescent plate reader (Tecan, Mannedorf, Switzerland) at excitation and emission wavelengths of 533 nm and 617 nm, respectively. Images were acquired using a standard inverted fluorescence microscope (Zeiss Axio, Oberkochen, Germany). […]
# Cell viability assays. Lactate dehydrogenase (LDH) release in culture medium was assessed using the commercially non-radioactive CytoTox-96 kit (Promega, Madison, Wisconsin) following the manufacturer’s instructions. […]
# [4] = tested on: AML-12 cells; test: Caspase 3/7 activity assay, hypoxia/reoxygenation; assay type: cell-based, mouse; settings: applied during hypoxia and reoxygenation; 4 h hypoxia, 2 h reoxygenation
# Method: Necrosis is the major cause of cell death during hepatic IRI. However, mPTP opening also leads to apoptosis resulting from mitochondrial swelling, rupture of the outer mitochondrial membrane and subsequent release of cytochrome C into the cytosol.[20] We investigated whether C105SR and C110SR protected against mPTP opening-induced apoptotic cell death.
# Mouse serum analysis. Blood was collected at 6 h of reperfusion. Alanine aminotransferase (ALT) and aspartate aminotransferase (AST) activities were measured on an automated analyzer in the Biochemistry Department of Henri Mondor Hospital.
# Histological Analysis. Hematoxylin and eosin staining was performed on 4-μm thick formalin-fixed paraffin-embedded tissue sections. […] Necrosis areas were quantified with […]
# TUNEL Assay. […] The number of TUNEL-positive cells were quantified using QuPath on slides scanned at x20 magnification using a virtual slide scanning system (Axio scan7/ZEN slidescan).
# Caspase 3/7 activity assay. Caspase 3/7 activity was assessed using the commercially Caspase-Glo® 3/7 assay (Promega, Madison, Wisconsin) following the manufacturer’s instructions.
# Briefly, Caspase-Glo® 3/7 Reagent was incubated with the cells and the caspase3/7 activity was determined by measuring luminescence with a luminometer (Berthold). Caspase3/7 activity was expressed as a percentage of the untreated control. […]
Structure (SMILES),mitochondrial CRC vs maximum effect of CsA [1],mitochondrial CRC vs CsA and ALV [1],"maximal mitochondrial CRC, diastereoisomer vs racemic mixture [1]",mitochondrial CRC vs control [1],EC50 [1] [nM],IC50 [2] [nM],propidium iodide fluorescence [3],protection against hypoxia/reoxygenation-induced cell apoptosis (caspase 3/7 activity) [4]
"COc1ccc(Br)cc1[C@H](NC(=O)NCc1ccc(N)cc1)C(=O)N1CCC[C@@H]1c1cccc2ccsc12 [Compound C110SR, 1-(4-aminobenzyl)-3-((S)-2-((R)-2-(benzo[b]thiophen-7-yl)pyrrolidin-1-yl)-1-(5-bromo-2-methoxyphenyl)-2-oxoethyl)urea]",stronger effect than the maximum effect achieved by CsA,comparable to those of CsA and ALV,670 ± 52 nmol Ca2+/mg of mitochondrial,greater than control mitochondrial CRC,140 ± 20,40 ± 5,low propidium iodide fluorescence,protected against hypoxia/reoxygenation-induced cell apoptosis
"COc1ccc(Br)cc1[C@H](NC(=O)NCc1ccc2c(c1)CCCN2)C(=O)N1CCC[C@@H]1c1cccc2ccsc12 [Compound C105SR, 1-((S)-2-((R)-2-(benzo[b]thiophen-7-yl)pyrrolidin-1-yl)-1-(5-bromo-2-methoxyphenyl)-2-oxoethyl)-3-((1,2,3,4-tetrahydroquinolin-6-yl)methyl)urea]",stronger effect than the maximum effect achieved by CsA,comparable to those of CsA and ALV,595 ± 38 nmol Ca2+/mg of mitochondrial,greater than control mitochondrial CRC,50 ± 20,9 ± 1,low propidium iodide fluorescence,protected against hypoxia/reoxygenation-induced cell apoptosis
